Results published in article PMC12362587, “Untargeted Diversity-Oriented Synthesis for the Discovery of New Antitumor Agents: An Integrated Approach of Inverse Virtual Screening, Bioinformatics, and Omics for Target Deconvolution” (Journal of Medicinal Chemistry, 2025).

Legend:
human recombinant CB1R = human recombinant CB1R (Homo sapiens, UniProt P21554); experiment: Competition binding assay, displacement of [3H]-CP-55,940; conditions: displacement of [3H]-CP-55,940, HEK-293 membranes; read-out: EC50 or IC50, cannabinoid receptor 1
Chain of human recombinant CB1R (P21554 whole entry): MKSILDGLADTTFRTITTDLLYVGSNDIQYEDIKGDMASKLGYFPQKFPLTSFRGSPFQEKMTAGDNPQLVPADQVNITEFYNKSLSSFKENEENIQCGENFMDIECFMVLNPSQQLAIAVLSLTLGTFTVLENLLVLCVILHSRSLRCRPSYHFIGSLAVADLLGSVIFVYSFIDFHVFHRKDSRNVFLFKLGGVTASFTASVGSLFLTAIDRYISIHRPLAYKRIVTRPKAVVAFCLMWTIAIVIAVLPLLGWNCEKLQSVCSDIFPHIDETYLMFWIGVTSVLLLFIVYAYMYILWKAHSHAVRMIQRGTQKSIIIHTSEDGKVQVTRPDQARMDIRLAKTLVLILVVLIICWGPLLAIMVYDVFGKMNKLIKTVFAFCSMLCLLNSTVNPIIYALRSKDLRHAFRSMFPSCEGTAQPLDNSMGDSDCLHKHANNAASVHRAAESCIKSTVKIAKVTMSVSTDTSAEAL
Procedure: Binding assays at equilibrium were conducted as described in Di Micco et al., 2024. […]. All compounds were evaluated following the manufacturer’s protocol (PerkinElmer distributed by Revvity, Italy). […] The K i values were calculated using the Cheng-Prusoff equation, based on the IC50 values obtained through GraphPad PRISM software (version 10.2.2). The results are expressed as K i (μM), represented as mean ± SEM, and reflect the average of three independent experiments performed in duplicate.

A375 = experiment: MTT cell viability assay; type: cell-based; conditions: Homo sapiens, A-375, 24 h, compounds 0.01–40 μM, read-out: In Vitro Cytotoxicity, EC50 ± SD, A375
Text: (§1) Initially, we phenotypically screened the synthesized compounds over a panel of tumor cell lines composed of HEPG2, A375, SHSY5Y, MCF7, and A549 derived from liver tumor, melanoma, neuroblastoma, breast cancer, and lung adenocarcinoma, respectively. We also considered the HaCaT cell line, coming from keratinocytes, as a healthy control line. As reference, cytotoxic chemotherapeutic agent 5-fluorouracil (5-FU) has been used. The results obtained performing the MTT (3-(4,5-dimethylthiazolyl-2)-2,5-diphenyltetrazolium bromide) assay are summarized in Table .
(§2) The human neuroblastoma SHSY5Y, melanoma A375, human breast cancer MCF7, nonsmall lung cancer A549, and human epidermal keratinocyte HaCaT cell lines were obtained from ATCC and were grown in Dulbecco’s Modified Eagle Medium (DMEM) supplemented with 10% (v/v) FBS, 2 mM L-glutamine, 100 U/mL penicillin, and 0.1 mg/mL streptomycin.
(§3) Cell viability was established by measuring mitochondrial metabolic activity with MTT. In brief, HEPG2 (1 × 10^4 cells/well), A375 (2 × 10^3 cells/well), HaCaT (3 × 10^3 cells/well), A549 (3 × 10^3 cells/well), SHSY5Y (2 × 10^4 cells/well), and MCF 7 (5 × 10^3 cells/well) were plated into 96-well plates for 24 h, then the compounds (0.01–40 μM) were added. After 24h, cells were replaced with a fresh medium containing 0.5 mg/mL MTT. Cells were incubated 1–3 h at 37 °C, then the medium was discarded, and formazan blue crystals in the cells were dissolved in 100 μL per well of a solution containing isopropanol/HCl 0.1 M. The absorbance was measured at 570 nm using a microplate reader (Multiskan Go, Thermo Scientific, Waltham, MA, USA). Cell viability was expressed as a percentage relative to the untreated cells cultured in medium with 0.1% DMSO and set to 100%, whereas 10% DMSO was used as positive control and set to 0% of viability. The EC50 values were calculated using GraphPad Prism 8.0 software by nonlinear regression of dose–response inhibition.

MCF7 = experiment: MTT cell viability assay; type: cell-based; conditions: Homo sapiens, 24 h, compounds 0.01–40 μM, read-out: In Vitro Cytotoxicity, EC50 ± SD, MCF7
Text: as §1, §2, §3

A549 = experiment: MTT cell viability assay; type: cell-based; conditions: Homo sapiens, 24 h, compounds 0.01–40 μM, read-out: In Vitro Cytotoxicity, EC50 ± SD, A549
Text: as §1, §2, §3

SHSY5Y = experiment: MTT cell viability assay; type: cell-based; conditions: Homo sapiens, SH-SY5Y, 24 h, compounds 0.01–40 μM, read-out: In Vitro Cytotoxicity, EC50 ± SD, SHSY5Y
Text: as §1, §2, §3

Cathepsin K = molecular target: T1, Cathepsin K (Homo sapiens, UniProt P43235); experiment: Cathepsin K Inhibitor Screening Assay Kit (BPS Bioscience); type: biochemical; conditions: top concentration 30 μM; read-out: EC50 or IC50, Cathepsin K
T1 construct: purchased BPS Bioscience
T1 sequence (P43235 115-329): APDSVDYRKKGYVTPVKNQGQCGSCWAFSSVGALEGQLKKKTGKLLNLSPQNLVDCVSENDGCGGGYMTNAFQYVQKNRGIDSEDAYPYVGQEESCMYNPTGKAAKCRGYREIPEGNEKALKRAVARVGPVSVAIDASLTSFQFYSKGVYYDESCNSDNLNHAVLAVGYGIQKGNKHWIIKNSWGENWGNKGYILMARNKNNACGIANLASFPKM
Procedure: The assay was performed in a volume of 50 μL in a 96-well black plate. The Cathepsin K inhibitor assay (BPS Bioscience, USA) was designed to measure protease activity by the presence of an internally quenched fluorogenic substrate. Upon cleavage by Cathepsin K (CTSK), the fluorescence of the substrate increases dramatically. For the activity measurement, protease (final concentration, 0.5 ng per reaction), the Fluorogenic Cathepsin K Substrate (final concentration, 70 μM), E-64 (known inhibitor, as positive control) or compounds were incubated for 1 h at room temperature. The compounds were added at different concentrations in the reaction buffer, starting with a final concentration of 30 μM. Buffer with the same amount of DMSO (1%) was used as a negative control. After the incubation time, the fluorescence signals (excitation/emission, 360 nm/460 nm) were read with a PerkinElmer EnSpire multimode plate reader (PerkinElmer, Waltham, MA, USA). Experiments were performed in triplicate. IC50 values were calculated with GraphPad Prism 8.0 software by nonlinear dose–response inhibition regression.

[1] = molecular target: T2, Poly [ADP-ribose] polymerase tankyrase-1 (Homo sapiens, UniProt O95271); experiment: TNKS1 (PARP5A) Colorimetric Assay Kit (BPS Bioscience); type: biochemical; conditions: top concentration 30 μM; read-out: EC50 or IC50, Poly [ADP-ribose] polymerase tankyrase-1
T2 construct: (TNKS1) enzyme (amino acids 1001–1323; final concentration, 1.5 ng per reaction); purchased BPS Bioscience
T2 sequence (O95271 1001-1323): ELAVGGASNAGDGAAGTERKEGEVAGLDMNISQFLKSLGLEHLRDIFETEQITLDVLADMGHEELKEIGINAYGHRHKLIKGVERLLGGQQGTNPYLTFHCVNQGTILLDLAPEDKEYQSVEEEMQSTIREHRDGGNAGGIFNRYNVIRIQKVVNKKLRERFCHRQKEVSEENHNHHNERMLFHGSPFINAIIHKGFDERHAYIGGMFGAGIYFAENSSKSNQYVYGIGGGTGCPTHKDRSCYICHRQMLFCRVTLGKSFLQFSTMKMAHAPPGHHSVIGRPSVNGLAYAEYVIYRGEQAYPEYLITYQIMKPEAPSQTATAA
Procedure: The assay was performed in a volume of 50 μL in a 96-well transparent plate. The TNKS1 assay kit (PARP5A; BPS Bioscience, USA) was performed by first coating the 96-well plate with histone proteins, then left at 4 °C overnight. Next, Poly [ADP-ribose] polymerase tankyrase-1 (TNKS1) enzyme (amino acids 1001–1323; final concentration, 1.5 ng per reaction), a mixture of biotinylated NAD^+ (PARP substrate) and compounds were incubated for 1 h at room temperature. The compounds were added at different concentrations in the reaction buffer, starting from a final concentration of 30 μM. Buffer with the same amount of DMSO (1%) was used as a negative control. After incubation, the plate was treated with streptavidin-HRP followed by the addition of the colorimetric HRP substrate generating a colored solution. The generated signal was read at an absorbance of 450 nm using a microplate reader with UV/vis spectrophotometer (Multiskan Go, Thermo Fisher Scientific, Waltham, MA, USA). Experiments were performed in triplicate. IC50 values were calculated with GraphPad Prism 8.0 software by nonlinear dose–response inhibition regression.

HEPG2 = experiment: MTT cell viability assay; type: cell-based; conditions: Homo sapiens, 24 h, compounds 0.01–40 μM, read-out: In Vitro Cytotoxicity, EC50 ± SD, HEPG2
Text: as §1
The human hepatoma HEPG2 cell line was obtained from American Type Culture Collection (ATCC, Rockville, MD, USA). Cells were grown in Eagle’s Minimum Essential Medium (EMEM) supplemented with 10% (v/v) fetal bovine serum (FBS), 2 mM L-glutamine, 1% (v/v) nonessential amino acids, 100 U/mL penicillin, and 0.1 mg/mL streptomycin.
as §3

Structure (SMILES) | IC50 (human recombinant CB1R) | EC50 (A375) | EC50 (MCF7) | EC50 (A549) | EC50 (SHSY5Y) | IC50 (Cathepsin K) | IC50 [1] | EC50 (HEPG2)
CC(C)C[C@H]1C(=O)N(Cc2ccc(C(F)(F)F)cc2)c2ccccc2C(=O)N1Cc1ccc(C(F)(F)F)cc1 [Compound 31, (S)-3-Isobutyl-1,4-bis(4-(trifluoromethyl)benzyl)-3,4-dihydro-1H-benzo[e][1,4]diazepine-2,5-dione] | > 30 µM | 0.65 ± 0.4 µM | 17.3 ± 2.38 µM | > 40 µM | > 40 µM | > 30 µM | > 30 µM | 12 ± 3.51 µM
CC(C)C[C@@H](C(=O)OCc1ccccc1)N1Cc2ccccc2NC1=O [Compound 63, Benzyl (S)-4-Methyl-2-(2-oxo-1,4-dihydroquinazolin-3(2H)-yl)pentanoate] | > 30 µM | 2.29 ± 1.12 µM | 27.9 ± 2.44 µM | 36.4 ± 3.15 µM | 23.2 ± 4.17 µM | > 30 µM | > 30 µM | 2.17 ± 0.96 µM
